Where a name gives a salt, the structure may show the parent alone.
Test: Solubility of terbinafine HCl in isopropyl alcohol
Format: physicochemical
Procedure: Terbinafine free base was prepared by adding 2.0 g of terbinafine HCl to 8.0 g of isopropyl alcohol (IPA) and 4.0 g Dowex Marathon A OH ion exchange resin. This resin exchanges OH^− for Cl^− and was washed with IPA prior to use. With the Cl^− removed from solution, the free base formed and the terbinafine went into solution within 5-10 minutes. (Terbinafine HCl is soluble in IPA up to 3.7%.) The reaction with the resin was run for 4 hours. Presence of the free base was confirmed by adding a drop of this IPA solution into water and measuring pH with a color strip. Adding the IPA solution caused the water pH to increase approximately one unit. The resin added OH^− to the solution, which reacted with H^+ and increased the water content. Excess water was removed by storing the terbinafine free base solution over molecular sieves for one week.

soluble in IPA up to: 3.7%
SMILES: CN(C/C=C/C#CC(C)(C)C)Cc1cccc2ccccc12 [Terbinafine HCl, terbinafine HCl]

Source: US8404751B2, “Subunguicide, and method for treating onychomycosis” (Hallux, Inc., priority 2002, dated 2013)
